Test results: paper PMC8691691 (ACS Chemical Neuroscience, 2021)
Substitutions are numbered along the chain they refer to. Read-outs that look alike come from different tables or passages of the source.

Key:
Experiment in all cases: [3H]glycine transport by GlyT2 mutant in COS7 cells
Type in all cases: cell-based
GlyT2 G214L mutant = target: T1, GlyT2 G214L mutant (Rattus norvegicus, UniProt P58295, G214L)
T1 construct: expressed in transfected cells; host or cells: COS7
T1 sequence (P58295 1-799 G214L): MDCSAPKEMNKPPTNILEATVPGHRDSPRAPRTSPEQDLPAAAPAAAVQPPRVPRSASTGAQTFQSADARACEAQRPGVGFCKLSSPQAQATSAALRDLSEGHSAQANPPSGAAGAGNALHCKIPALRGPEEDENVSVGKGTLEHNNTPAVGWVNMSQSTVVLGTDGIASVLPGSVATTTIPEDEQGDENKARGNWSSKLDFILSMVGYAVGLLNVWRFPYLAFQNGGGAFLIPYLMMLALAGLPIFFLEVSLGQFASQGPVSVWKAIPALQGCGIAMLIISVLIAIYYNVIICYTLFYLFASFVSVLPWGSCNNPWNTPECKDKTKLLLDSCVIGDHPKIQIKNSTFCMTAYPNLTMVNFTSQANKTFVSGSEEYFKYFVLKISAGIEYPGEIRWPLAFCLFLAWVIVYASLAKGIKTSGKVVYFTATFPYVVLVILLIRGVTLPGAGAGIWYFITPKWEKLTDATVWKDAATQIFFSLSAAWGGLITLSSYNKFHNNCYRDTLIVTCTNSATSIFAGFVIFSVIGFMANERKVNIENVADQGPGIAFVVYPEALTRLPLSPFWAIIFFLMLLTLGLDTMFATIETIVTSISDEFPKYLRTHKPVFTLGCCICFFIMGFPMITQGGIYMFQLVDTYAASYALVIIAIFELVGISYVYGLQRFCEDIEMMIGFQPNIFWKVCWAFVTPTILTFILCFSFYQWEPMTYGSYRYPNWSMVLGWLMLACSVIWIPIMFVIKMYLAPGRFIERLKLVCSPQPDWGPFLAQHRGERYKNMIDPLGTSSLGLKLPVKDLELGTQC
Excerpt: (§1) To validate the predicted interactions between the inhibitors and GlyT2, we used systematic site-directed mutagenesis to construct substitution mutants of the potential residues involved in ligand binding. […] The GlyT2 residues predicted to interact with the inhibitors through its side chain were replaced by amino acids expected to force the loss of the interaction. In the cases where the interaction occurred through the backbone, the inserted amino acid sought to alter the disposition of the substituted residue to lose the coordination.
(§2) Substitution mutants were generated with the QuikChange II Site-Directed Mutagenesis kit (Agilent Technologies, Santa Clara, CA, USA), using rGlyT2 or rGlyT1 subcloned in pCDNA3.[47] The complete coding region of all of the constructs was sequenced to verify that only the desired mutation had been introduced. […] COS7 cells were grown and transfected using Turbofect Transfection Reagent (Thermo Fisher Scientific, Waltham, MA, USA), following the manufacturer’s protocol (2 μL reagent/μg of DNA). Cells were incubated for 48 h at 37 °C until used.
(§3) At the end of the desired time (usually 10 min), reactions were washed and terminated by aspiration. […] A nonlinear curve fitting method was used to obtain IC50 values using Graphpad Prism software, version 6.0, Graphpad, San Diego, CA, USA.

GlyT2 L576I mutant = target: T2, GlyT2 L576I mutant (Rattus norvegicus, UniProt P58295, L576I); details: for IC50: read-out: IC50 (Table S1)
T2 construct: expressed in transfected cells; host or cells: COS7
T2 sequence (P58295 1-799 L576I): T1 sequence (P58295 1-799 G214L) with L214G, L576I
Excerpt: as §1, §2, §3

GlyT2 S640C mutant = target: T3, GlyT2 S640C mutant (Rattus norvegicus, UniProt P58295, S640C); details: read-out: IC50 (Table S1)
T3 construct: expressed in transfected cells; host or cells: COS7
T3 sequence (P58295 1-799 S640C): T1 sequence (P58295 1-799 G214L) with L214G, S640C
Excerpt: as §1, §2, §3

| IC50 (GlyT2 G214L mutant; read-out: IC50 (Table S1)) [nM] | Compound | effect of mutation on inhibition of glycine transport (GlyT2 L576I mutant; L576I, 1 μM inhibitor, 25 μM glycine) | IC50 (GlyT2 L576I mutant) [nM] | IC50 (GlyT2 S640C mutant) [nM] | IC50 (GlyT2 G214L mutant) [nM] |
| --- | --- | --- | --- | --- | --- |
| 38 ± 3 | N[C@@H](COC(c1cccc(F)c1)c1ccccc1OCc1ccccc1)C(=O)O (stereo partly shown) [ALX1393] | prevented the inhibition by ALX1393 to a greater extent than that of ORG25543 | 101 ± 22 | 30 ± 7 |  |
|  | COc1cc(C(=O)NCC2(N(C)C)CCCC2)cc(OC)c1OCc1ccccc1 [ORG25543, N-[[1-(dimethylamino)cyclopentyl]methyl]-3,5-dimethoxy-4-(phenylmethoxy)benzamide] |  | 111 ± 15 | 130 ± 6 | 17 ± 10 |
